According to ChEMBL document CHEMBL6096681, “Examining Arginase-1 Trimerization Uncovers a Promising Allosteric Site for Inhibition” (J Med Chem, 2025):
Active and inactive are the calls of the source. No cut-off for these calls is given here.

How the values were obtained:
[1] = biological target: T1, Arginase-1 (Homo sapiens) (UniProt P05089); test: Inhibition of full length N-terminal his6-tagged human ARG-1 expressed in Escherichia coli BL21 (DE3) cells at 10 mM incubated for 24 hrs relative to control
T1 sequence (whole entry): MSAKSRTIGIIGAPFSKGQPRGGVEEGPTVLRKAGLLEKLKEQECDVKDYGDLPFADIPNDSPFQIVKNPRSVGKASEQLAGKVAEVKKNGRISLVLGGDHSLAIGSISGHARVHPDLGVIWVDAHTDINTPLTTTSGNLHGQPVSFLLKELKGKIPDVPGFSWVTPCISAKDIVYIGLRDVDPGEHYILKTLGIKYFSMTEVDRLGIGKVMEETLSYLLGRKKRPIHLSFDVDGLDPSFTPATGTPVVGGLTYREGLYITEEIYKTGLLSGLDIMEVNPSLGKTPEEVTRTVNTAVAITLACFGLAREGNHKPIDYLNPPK

[2] = biological target: T1, Arginase-1 (Homo sapiens); test: Inhibition of N-terminal his6-tagged truncated human ARG-1 expressed in Escherichia coli BL21 (DE3) cells at 10 mM incubated for 24 hrs
[3] = biological target: T1, Arginase-1 (Homo sapiens); test: Inhibition of full length N-terminal his6-tagged human ARG-1 expressed in Escherichia coli BL21 (DE3) cells upto 20 mM incubated for 24 hrs by coomassie blue staining based SDS/PAGE analysis
[4] = biological target: T1, Arginase-1 (Homo sapiens); test: Binding affinity to full length N-terminal his6-tagged human ARG-1 expressed in Escherichia coli BL21 (DE3) cells assessed as thermal stabilization at 0.625 to 20 mM measured for 24 hrs by nanoDSF analysis; settings: dose 0.625-20 mM
[5] = biological target: T1, Arginase-1 (Homo sapiens); test: Binding affinity to N-terminal his6-tagged truncated human ARG-1 expressed in Escherichia coli BL21 (DE3) cells assessed as thermal stabilization at 20 mM measured for 24 hrs by nanoDSF analysis
[6] = species on record: Homo sapiens; test: Inhibition of full length N-terminal his6-tagged human ARG-1 R205A mutant expressed in Escherichia coli BL21 (DE3) cells by mass spectrometry analysis

inhibition [1]: 30%
inhibition [2]: Active
inhibition [3]: Active
Activity [4]: Active
Activity [5]: Active
SMILES: O=CC(=O)c1ccccc1
inhibition [6]: Active
